Reference: patent publication US20260242789A1 (priority 2023, published 2026)
Counter-ions that a name gives are not always drawn. Like-named read-outs stand apart in the source and are kept apart here.

What was measured:
[1] = molecular target: T1, SAMD9^134-385 protein (SAMD9 tRNase) (Homo sapiens, UniProt Q5K651); assay: biochemical
T1 construct: The recombinant SAMD9^134-385 or SAMD9^156-385 protein was expressed and purified from E. coli; SUMO (cleaved yes); 6xHis (cleaved yes); made in house; host or cells: E. coli
T1 sequence (Q5K651 134-385): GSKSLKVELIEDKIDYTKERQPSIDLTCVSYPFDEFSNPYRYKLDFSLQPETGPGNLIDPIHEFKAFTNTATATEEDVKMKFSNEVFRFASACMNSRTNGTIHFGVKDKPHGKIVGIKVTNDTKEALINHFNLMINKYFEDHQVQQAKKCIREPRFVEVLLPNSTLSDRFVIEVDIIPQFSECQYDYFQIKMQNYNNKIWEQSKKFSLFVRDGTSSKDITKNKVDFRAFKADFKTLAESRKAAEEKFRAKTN

[2] = molecular target: T1, SAMD9^134-385 protein (SAMD9 tRNase); type: biochemical; details: at 2×IC50 concentration, two hours of reaction
[3] = molecular target: T2, SAMD9 tRNase:tRNA complex (Homo sapiens, UniProt Q5K651); type: binding
T2 construct: The recombinant SAMD9^134-385 or SAMD9^156-385 protein was expressed and purified from E. coli; SUMO (cleaved yes); 6xHis (cleaved yes); made in house; host or cells: E. coli
T2 sequence (Q5K651 134-385): T1 sequence (Q5K651 134-385)

| Compound | IC50 [1] | cleavage of yeast tRNA by SAMD9 tRNase [2] | disruption of the SAMD9 tRNase:tRNA complex ([3]; 2:1 molar ratio) | disruption of the SAMD9 tRNase:tRNA complex ([3]; 20:1 molar ratio) | IC50 ([1]; dose response studies, cleavage of Phe17-Fret by SAMD9 tRNase, read-out: IC50) | disruption of the SAMD9 tRNase:tRNA complex ([3]; 100:1 molar ratio) |
| --- | --- | --- | --- | --- | --- | --- |
| Cc1cc(-c2ccc(/N=N/c3ccc4c(S(=O)(=O)O)cc(S(=O)(=O)O)c(N)c4c3O)c(C)c2)ccc1/N=N/c1ccc2c(S(=O)(=O)O)cc(S(=O)(=O)O)c(N)c2c1O [Evans Blue] | 1200 nM | blocked | disrupted the complex | completely disrupted |  |  |
| Salvianolic acid B |  | blocked |  | minor effect | 3000 nM | did not completely disrupt |
| NCCOc1cc(C(=O)Nc2cc(OCCN)c3ccccc3n2)nc(C(=O)Nc2cc(OCCN)c3ccccc3n2)c1 [Pyridostatin TFA] | 7800 nM | partially reduced |  |  |  |  |
